Data: ChEMBL document CHEMBL3244292, “Imidazo[4,5-f]quinolines. 2. A series of 9-(substituted amino)imidazo[4,5-f]quinolines as antitapeworm agents” (1977)
Calls of active or inactive are those of the source. The calls are words filed in the database; no cut-off is given here.

Experiments:
Rodentolepis nana [1] = test: Anthelmintic activity against Hymenolepis nana infected in mouse assessed as reduction in worm burden at 100 mg/kg administered bid for 3 days relative to control; type: functional; parameters: scale not given: the % may be the effect or the level left
Rodentolepis nana [2] = test: Anthelmintic activity against Hymenolepis nana infected in mouse assessed as reduction in worm burden at 10 mg/kg administered bid for 3 days relative to control; type: functional, organism-based; parameters: dose 10 mg/kg
Rodentolepis nana [3] = test: Anthelmintic activity against Hymenolepis nana infected in mouse assessed as reduction in worm burden at 25 mg/kg administered bid for 3 days relative to control; type: functional; parameters: scale not given: the % may be the effect or the level left
Rodentolepis nana [4] = test: Anthelmintic activity against Hymenolepis nana infected in mouse assessed as reduction in worm burden at 50 mg/kg administered bid for 3 days relative to control; type: functional; parameters: scale not given: the % may be the effect or the level left

Structure (SMILES)	Activity (Rodentolepis nana [1])	Activity (Rodentolepis nana [2])	Activity (Rodentolepis nana [3])	Activity (Rodentolepis nana [4])
Cc1cc(Nc2ccc(N3CCN(Cc4ccccc4)CC3)c(Cl)c2)c2c(ccc3nc[nH]c32)n1	100%	inactive	77%	100%
COc1cc(Nc2cc(C)nc3ccc4nc[nH]c4c23)c(OC)cc1Cl	100%	inactive	100%	72%
Cc1cc(Nc2ccc(OCCC(C)C)c(OCCC(C)C)c2)c2c(ccc3nc[nH]c32)n1	100%	inactive	67%	100%
CCCC(C)Oc1ccc(Nc2cc(C)nc3ccc4nc[nH]c4c23)cc1OC(C)CCC (configuration not stated)	100%	inactive	92%	100%
Cc1cc(Nc2ccc(OCC(C)C)c(OCC(C)C)c2)c2c(ccc3nc[nH]c32)n1	100%	inactive	77%	78%
CCCCCCOc1ccc(C(=N)N(CCCC)CCCC)c2ccccc12 [BUNAMIDINE]	100%	inactive	30%	59%
CC(=O)c1ccc(Nc2cc(C)nc3ccc4nc[nH]c4c23)cc1	100%	inactive	56%	100%
CCCCOc1cc(Nc2cc(C)nc3ccc4nc[nH]c4c23)c(OCCCC)cc1Cl	100%	inactive	74%	84%
